# Assay results taken from patent US11186564B2, “Dual NAV1.2/5HT2a inhibitors for treating CNS disorders” (Sunovion Pharmaceuticals Inc., priority 2016, dated 2021).
# Target: T1, recombinant human serotonin receptor 5-HT2A (Homo sapiens, UniProt P28223)
# T1 construct: expressed in transfected cells; method B: loaded with Ca2+ dye
# Experiment: 5-HT2A antagonist Ca2+ assay in CHO-K1 cells (method A aequorin luminescence / method B FLIPR fluorescence)
# Type: cell-based
# Details: 5HT2A IC50, μM, antagonist mode vs EC80 of reference agonist, method A or B
# Description: The methods utilized to assess the inhibitory activity of compounds on recombinant human serotonin receptor 5-HT2A was based upon previously published approaches [Jerman J C, Brough S J, Gager T, Wood M, Coldwell M C, Smart D, Middlemiss D N. Pharmacological characterisation of human 5-HT2 receptor subtypes. European Journal of Pharmacology 2001 Feb. 23; 414(1):23-30; Le Poul E, Hisada S, Mizuguchi Y, Dupriez V J, Burgeon E, Detheux M. Adaptation of aequorin functional assay to high throughput screening. J Biomolecular Screening 2002 February; 7(1):57-65.] The 5-HT2A receptor signals through Gq-phospholipase signaling cascade, which leads to a transient increase in free intracellular […] concentration. Both 5-HT2A assay methods rely upon monitoring these changes in Ca^2+ concentration.
# In method A [Le Poul E, Hisada S, Mizuguchi Y, Dupriez V J, Burgeon E, Detheux M. (2002)], CHO-K1 cells engineered to stably co-express both recombinant human 5-HT2A and mitochondrial apoaequorin are used. […] For agonist testing, 50 microliters of cell suspension is mixed with 50 microliters of a solution containing test compound or reference agonist in a 96-well standard geometry microtiter plate. The resulting emission of light was recorded using a Hamamatsu Functional Drug Screening System 6000 (FDSS 6000) luminometer. For antagonist testing, 100 microliters of the solution of reference agonist (to yield an agonist concentration, EC80, sufficient to cause the cells to generate an 80% maximal luminescence response in the absence of any antagonist) is injected into the mix of cells and test compound, 15 minutes after the first injection. The resulting emission of light is recorded using Hamamatsu FDSS 6000 luminometer. IC50 values are calculated (from compound concentration dependent inhibition of agonist-induced 5-HT2A-dependent light emission) by non-linear least squares regression of the data (percent inhibition) onto equation (1) above.
# In method B [Jerman J C, Brough S J, Gager T, Wood M, Coldwell M C, Smart D, Middlemiss D N. (2001)], CHO-K1 cells which had been engineered to stably co-express recombinant human 5-HT2A are used in assay done similarly to method A. In method B, the cells are loaded with a fluorogenic Ca^2+ indicator dye by pre-incubation. Addition of the reference agonist serotonin causes a transient increase in fluorescence in a suspension of the loaded cells, which can be detected using the Molecular Devices fluorometric imaging plate reader (FLIPR), a high-throughput platform for 96-well cell-based assays. Addition of test compounds that are 5-HT2A antagonists, prior to the addition of the agonist (to yield an agonist concentration, EC80, sufficient to cause the cells to generate an 80% maximal fluorescence response in the absence of any antagonist), reduces the amount of fluorescence detected by the FLIPR upon agonist addition. IC50 values are calculated (from compound concentration dependent inhibition of agonist-induced 5-HT2A-dependent fluorescence) by non-linear least squares regression of the data (percent inhibition) onto equation (1) above.
# T1 sequence (P28223 whole entry): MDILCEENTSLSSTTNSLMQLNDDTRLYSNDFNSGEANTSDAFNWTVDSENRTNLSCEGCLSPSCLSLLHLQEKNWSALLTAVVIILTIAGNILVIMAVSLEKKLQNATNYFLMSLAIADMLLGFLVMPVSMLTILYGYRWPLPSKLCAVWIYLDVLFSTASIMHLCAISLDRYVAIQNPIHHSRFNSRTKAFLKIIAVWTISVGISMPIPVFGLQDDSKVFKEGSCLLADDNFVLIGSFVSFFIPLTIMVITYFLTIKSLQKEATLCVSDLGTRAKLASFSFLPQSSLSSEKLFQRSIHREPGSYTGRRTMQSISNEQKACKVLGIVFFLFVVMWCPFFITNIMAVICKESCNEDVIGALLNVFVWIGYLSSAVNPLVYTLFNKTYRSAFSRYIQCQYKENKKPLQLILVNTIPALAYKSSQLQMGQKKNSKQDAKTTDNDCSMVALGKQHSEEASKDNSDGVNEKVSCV
row,Compound,IC50 [µM]
1,"c1ccc2c(c1)COC21CCN(CC2COc3ccccc32)CC1 (centres unmarked) [Example 391, 1′-((2,3-dihydrobenzofuran-3-yl)methyl)-3H-spiro[isobenzofuran-1,4′-piperidine]]",14.1

# Same assay, conditions: antagonist mode vs EC80 of reference agonist, method A or B, read-out: 5HT2A IC50
row,IC50 [µM],Compound
1,> 13.3,"OC1(CN2CCC[C@H](Oc3ccc(F)cc3)C2)COCc2ccccc21 (stereo partly drawn) [Example 259, 4-(((S)-3-(4-fluorophenoxy)piperidin-1-yl)methyl)isochroman-4-ol]"
2,5.88,"Fc1ccc(O[C@@H]2CCN(CC3CCc4ccncc43)C2)cc1 (stereo partly drawn) [Example 5, 7-(((R)-3-(4-fluorophenoxy)pyrrolidin-1-yl)methyl)-6,7-dihydro-5H-cyclopenta[c]pyridine]"
3,> 10,"Fc1ccc(OC2COCCN(CC3Cc4cccnc4C3)C2)cc1 (centres unmarked) [Example 279, 4-((6,7-dihydro-5H-cyclopenta[b]pyridin-6-yl)methyl)-6-(4-fluorophenoxy)-1,4-oxazepane]"
4,0.37,"C[C@@H]1C[C@]2(CCc3ccccc3O2)CCN1CCO[C@H]1CCc2ccccc21 [Example 435, (2S,2′R)-1′-(2-(((S)-2,3-dihydro-1H-inden-1-yl)oxy)ethyl)-2′-methylspiro[chromane-2,4′-piperidine]]"
5,0.8,"Cc1cccc(N2CCN(CC3CCOc4ccccc43)CC2)c1C (centres unmarked) [Example 59, 1-(chroman-4-ylmethyl)-4-(2,3-dimethylphenyl)piperazine]"
6,> 16.7,"OC(COC1CCCCC1)CN1CCC2(CCCN(c3ccccc3)C2)C1 (centres unmarked) [Example 351, 1-(cyclohexyloxy)-3-(7-phenyl-2,7-diazaspiro[4.5]decan-2-yl)propan-2-ol]"
7,0.41,"COc1cccc(COC2CCN(CC3CCc4ccc(OC)cc43)CC2)c1 (centres unmarked) [Example 245, 1-((6-methoxy-2,3-dihydro-1H-inden-1-yl)methyl)-4-((3-methoxybenzyl)oxy)piperidine]"
8,1.05,"COc1ccccc1CN1CCC2(CCc3ccccc3O2)CC1 [Example 416, l′-(2-methoxybenzyl) spiro[chromane-2,4′-piperidine]]"
9,1.6,"COc1cccc(O[C@@H]2CCN(CC(O)CO[C@@H]3CCc4ccccc43)C2)c1 (stereo partly drawn) [Example 40, 1-(((R)-2,3-dihydro-1H-inden-1-yl)oxy)-3-((R)-3-(3-methoxyphenoxy)pyrrolidin-1-yl)propan-2-ol]"
10,2.17,"O[C@@H](COC1CCCCC1)CN1CCC[C@H](Oc2ccc(F)cc2)C1 [Example 269, (R)-1-(cyclohexyloxy)-3-((S)-3-(4-fluorophenoxy)piperidin-1-yl)propan-2-ol]"
11,0.45,"COc1ccccc1OC1CCN(CC2CCc3cc(C#N)ccc32)CC1 (centres unmarked) [Example 99, 1-((4-(2-methoxyphenoxy)piperidin-1-yl)methyl)-2,3-dihydro-1H-indene-5-carbonitrile]"
12,> 16.7,"O=C1c2ccccc2CCN1CCN1CC[C@H](Oc2ccncc2)C1 [Example 30, (S)-2-(2-(3-(pyridin-4-yloxy)pyrrolidin-1-yl)ethyl)-3,4-dihydroisoquinolin-1(2H)-one]"
13,> 10,"COc1ccccc1OC1CCN(CC2(C)Cc3cccnc3C2)CC1 (centres unmarked) [Example 151, 6-((4-(2-methoxyphenoxy)piperidin-1-yl)methyl)-6-methyl-6,7-dihydro-5H-cyclopenta[b]pyridine]"
14,2.12,"O[C@H](COC1CCCCC1)CN1CCC[C@H](Oc2ccc(F)cc2)C1 [Example 268, (S)-1-(cyclohexyloxy)-3-((S)-3-(4-fluorophenoxy)piperidin-1-yl)propan-2-ol]"
15,> 16.7,"O=C1c2ccccc2CCN1CCN1CC[C@@H](Oc2cccnc2)C1 [Example 23, (R)-2-(2-(3-(pyridin-3-yloxy)pyrrolidin-1-yl)ethyl)-3,4-dihydroisoquinolin-1(2H)-one]"
16,7.47,"COc1ccccc1O[C@H]1CCN(CCN2CCc3ccccc3C2=O)C1 [Example 14, (S)-2-(2-(3-(2-methoxyphenoxy)pyrrolidin-1-yl)ethyl)-3,4-dihydroisoquinolin-1(2H)-one]"
17,> 16.7,"O=C1c2ccccc2CCN1CCN1CC[C@@H](Oc2ccccn2)C1 [Example 15, (R)-2-(2-(3-(pyridin-2-yloxy)pyrrolidin-1-yl)ethyl)-3,4-dihydroisoquinolin-1(2H)-one]"
18,3.64,"c1ccc2c(c1)CCC1(CCN(CC3CCc4ncccc43)CC1)O2 (centres unmarked) [Example 407, 1′-((6,7-dihydro-5H-cyclopenta[b]pyridin-5-yl)methyl)spiro[chromane-2,4′-piperidine]]"
19,> 3.16,"Fc1ccc(OC2COCCN(CC3COc4ccccc43)C2)cc1 (centres unmarked) [Example 278, 4-((2,3-dihydrobenzofuran-3-yl)methyl)-6-(4-fluorophenoxy)-1,4-oxazepane]"
20,0.44,"COc1ccc2c(c1)C(CN1CCC(Oc3ccc(C#N)cc3)CC1)CC2 (centres unmarked) [Example 120, 4-((1-((6-methoxy-2,3-dihydro-1H-inden-1-yl)methyl)piperidin-4-yl)oxy)benzonitrile]"
21,0.86,"COc1cccc(OC2CCN(CC3CCOc4ccccc43)CC2)c1 (centres unmarked) [Example 164, 1-(chroman-4-ylmethyl)-4-(3-methoxyphenoxy)piperidine]"
22,7.13,"COc1cccc(O[C@H]2CCN(CC(O)CO[C@@H]3CCc4ccccc43)C2)c1 (stereo partly drawn) [Example 41, 1-(((R)-2,3-dihydro-1H-inden-1-yl)oxy)-3-((S)-3-(3-methoxyphenoxy)pyrrolidin-1-yl)propan-2-ol]"
23,0.05,"O[C@H](COC1CCCCC1)CN1CCC(Oc2ccccc2)CC1 [Example 233, (S)-1-(cyclohexyloxy)-3-(4-phenoxypiperidin-1-yl)propan-2-ol]"
24,1.5,"OC1(CN2CCC[C@@H](Oc3ccc(F)cc3)C2)COCc2ccccc21 (stereo partly drawn) [Example 258, 4-(((R)-3-(4-fluorophenoxy)piperidin-1-yl)methyl)isochroman-4-ol]"
25,0.03,"O[C@@H](COC1CCCCC1)CN1CCC(Oc2ccccc2)CC1 [Example 234, (R)-1-(cyclohexyloxy)-3-(4-phenoxypiperidin-1-yl)propan-2-ol]"
26,> 8.7,"O=C1c2ccccc2CCN1CCN1CCC(Oc2ccncc2)CC1 [Example 199, 2-(2-(4-(pyridin-4-yloxy)piperidin-1-yl)ethyl)-3,4-dihydroisoquinolin-1(2H)-one]"
27,> 16.7,"OC(COC1CCCCC1)CN1CCCC12CCCN(c1ccccc1)C2 (centres unmarked) [Example 353, 1-(cyclohexyloxy)-3-(7-phenyl-1,7-diazaspiro[4.5]decan-1-yl)propan-2-ol]"

row,Compound,IC50 [µM]
1,"O[C@H](CO[C@@H]1CCCc2ccccc21)CN1CCN(Cc2ccccc2)CC1 [Example 86, (S)-1-(4-benzylpiperazin-1-yl)-3-(((R)-1,2,3,4-tetrahydronaphthalen-1-yl)oxy)propan-2-ol]",> 16.7
2,"c1ccc(N2C[C@@H]3C[C@H]2CCN3CC2Cc3ccncc3C2)cc1 (stereo partly drawn) [Example 321, 6-(((1S,5R)-6-phenyl-2,6-diazabicyclo[3.2.1]octan-2-yl)methyl)-6,7-dihydro-5H-cyclopenta[c]pyridine]",> 10
3,"OC(CO[C@H]1CCc2ccccc21)CN1CCC(Oc2ccc(F)cc2)CC1 (stereo in doubt) [Example 237, (R)-1-(((S)-2,3-dihydro-1H-inden-1-yl)oxy)-3-(4-(4-fluorophenoxy)piperidin-1-yl)propan-2-ol]",0.6
4,"O[C@@H](CO[C@@H]1CCCc2ccccc21)CN1CCN(Cc2ccccc2)CC1 [Example 84, (R)-1-(4-benzylpiperazin-1-yl)-3-(((R)-1,2,3,4-tetrahydronaphthalen-1-yl)oxy)propan-2-ol]",> 16.7
5,"COc1ccccc1OC1CCN(CC2Cc3ccccc3C2)[C@@H](C)C1 (single isomer, unassigned) [Example 148]",1.44
6,"COc1ccc2c(c1)[C@@H](CN1C[C@@H]3CC[C@H]1CN3c1ccccc1)CC2 (single isomer, unassigned) [Compound 311]",0.01
7,"Fc1ccc(O[C@@H]2CCN(CC3CCc4cccnc43)C2)cc1 (stereo partly drawn) [Example 7, 7-(((R)-3-(4-fluorophenoxy)pyrrolidin-1-yl)methyl)-6,7-dihydro-5H-cyclopenta[b]pyridine]",1.01
